Where two headings read alike, the source gives them in different places.
Key:
mammalian cells = details: cited from earlier work
Wistar rats [1] = experiment: Extended one-generation reproductive toxicity study (OECD TG 443); assay type: in vivo, rat; details: for NOAEL, EOGRTS: developmental and reproductive toxicity: OECD 443 v 2018, oral gavage
Source text: Healthy and specific pathogen-free male and female (non-pregnant and nulliparous) Wistar Crl: WI(Han) rats were obtained from Charles River Laboratories (Germany). […] Upon arrival at BSL BIOSERVICE, the animals underwent an acclimatisation period of at least 5 days, and they were approximately 15–16 weeks old at the onset of the treatment period.

rats [2] = details: rat, in vivo; cited from earlier work
rats [3] = details: acute oral, rats, OECD 401; ref ECHA dissemination portal; cited from earlier work
Wistar rats [4] = details: ref Harlan 2012, cited from earlier work
Wistar rats [5] = experiment: Reproductive toxicity screening study (OECD TG 421); assay type: in vivo, rat; details: for NOAEL, reproductive toxicity: OECD 421 v 2016 oral gavage (& historical OECD 422 feeding study)
Protocol: Healthy and specific pathogen-free male and female (non-pregnant and nulliparous) Wistar Crl: WI(Han) rats were obtained from Charles River Laboratories (Germany). The animals were housed in an air-conditioned room (temperature: 22 ± 3 °C; relative humidity: 55 ± 10%; artificial light, light–dark cycle: 12 h–12 h; air change: 10 times/h). Housing was in groups of 5 animals/sex/cage in individually ventilated Type IV polysulphone cages on Altromin saw fibre bedding with free access to both Altromin 1324 maintenance diet for rats and mice and tap water. Upon arrival at BSL BIOSERVICE, the animals underwent an acclimatisation period of at least 5 days, and they were approximately 15–16 weeks old at the onset of the treatment period. […]

Structure (SMILES): CCCOC(=O)c1ccc(O)cc1 [Propyl paraben, Propyl 4-hydroxybenzoate]
- Mutagenicity in mammalian cells classification (mammalian cells): Not mutagenic [c] (OECD 476; 2012)
- Developmental immunotoxicity (DIT) (Wistar rats [1]; DIT cohort): did not exhibit
- Developmental neurotoxicity (DNT) (Wistar rats [1]; DNT cohort): did not exhibit DNT
- NOAEL, EOGRTS: developmental and reproductive toxicity (Wistar rats [1]): NOAEL: 1000 (OECD 443; v 2018) mg/kg body weight/day
- NOAEL, EOGRTS: developmental and reproductive toxicity (Wistar rats [1]; listed as propyl paraben): 1000 mg/kg body weight/day
- Accessory sex organs HP (Wistar rats [1]; P0, F1, (F2)): NAE / NAE
- Adrenals HP (Wistar rats [1]; P0, F1, (F2)): NAE / NAE
- Adrenals weight (Wistar rats [1]; P0, F1, (F2)): NAE / NAE
- Age at balano-preputial separation (Wistar rats [1]; P0, F1, (F2)): NAE / NAE
- Age at vaginal opening (Wistar rats [1]; P0, F1, (F2)): NAE / NAE
- Anogenital distance (Wistar rats [1]; P0, F1, (F2)): NAE / NAE
- Auditory startle (Wistar rats [1]; P0, F1, (F2)): NAE / NAE
- Brain HP (Wistar rats [1]; P0, F1, (F2)): NAE / NAE
- Brain morphometric evaluation (Wistar rats [1]; P0, F1, (F2)): NAE / NAE
- Brain weight (Wistar rats [1]; P0, F1, (F2)): NAE / NAE
- Cervix HP (Wistar rats [1]; P0, F1, (F2)): NAE / NAE
- Coagulating gland HP (Wistar rats [1]; P0, F1, (F2)): NAE / NAE
- Coagulating gland weight (Wistar rats [1]; P0, F1, (F2)): NAE / NAE
- Colloid area (thyroid HP) (Wistar rats [1]; P0, F1, (F2)): NAE / NAE
- Dystocia (Wistar rats [1]; P0, F1, (F2)): NAE / NAE
- Epididymis HP (Wistar rats [1]; P0, F1, (F2)): NAE / NAE
- Epididymis weight (Wistar rats [1]; P0, F1, (F2)): NAE / NAE
- Fertility (Wistar rats [1]; P0, F1, (F2)): NAE / NAE
- Foetal development (Wistar rats [1]; P0, F1, (F2)): NAE / NAE
- Functional observation battery (Wistar rats [1]; P0, F1, (F2)): NAE [h] / NAE
- Gestation length (Wistar rats [1]; P0, F1, (F2)): NAE / NAE
- Litter size (Wistar rats [1]; P0, F1, (F2)): NAE / NAE
- Litter viability (Wistar rats [1]; P0, F1, (F2)): NAE / NAE
- Liver weight (Wistar rats [1]; P0, F1, (F2)): NAE / NAE
- Mammary gland HP; females (Wistar rats [1]; P0, F1, (F2)): NAE / NAE
- Mammary gland HP; males (Wistar rats [1]; P0, F1, (F2)): NAE / NAE
- Motor activity (Wistar rats [1]; P0, F1, (F2)): NAE / NAE
- Nipple development (Wistar rats [1]; P0, F1, (F2)): NAE / NAE
- No. of implantations, corpora lutea (Wistar rats [1]; P0, F1, (F2)): NAE / NAE
- No. of live births (Wistar rats [1]; P0, F1, (F2)): NAE / NAE
- No. of ovarian follicles (Wistar rats [1]; P0, F1, (F2)): NAE / NAE
- Oestrus cyclicity (Wistar rats [1]; P0, F1, (F2)): NAE / NAE
- Offspring: learning & memory (Wistar rats [1]; P0, F1, (F2)): NAE / NAE
- Ovary HP (Wistar rats [1]; P0, F1, (F2)): NAE / NAE
- Ovary weight (Wistar rats [1]; P0, F1, (F2)): NAE / NAE
- Oviduct HP (Wistar rats [1]; P0, F1, (F2)): NAE / NAE
- Pituitary HP (Wistar rats [1]; P0, F1, (F2)): NAE / NAE
- Pituitary weight (Wistar rats [1]; P0, F1, (F2)): NAE / NAE
- Postimplantation loss (Wistar rats [1]; P0, F1, (F2)): NAE / NAE
- Presence of anomalies (external, visceral, skeletal) (Wistar rats [1]; P0, F1, (F2)): NAE / NAE
- Prostate HP (Wistar rats [1]; P0, F1, (F2)): NAE / NAE
- Prostate weight (Wistar rats [1]; P0, F1, (F2)): NAE / NAE
- Pup development (Wistar rats [1]; P0, F1, (F2)): NAE / NAE
- Reproduction (Wistar rats [1]; P0, F1, (F2)): NAE / NAE
- Seminal vesicles HP (Wistar rats [1]; P0, F1, (F2)): NAE / NAE
- Seminal vesicles weight (Wistar rats [1]; P0, F1, (F2)): NAE / NAE
- Sperm morphology (Wistar rats [1]; P0, F1, (F2)): NAE / NAE
- Sperm motility (Wistar rats [1]; P0, F1, (F2)): NAE / NAE
- Sperm numbers (Wistar rats [1]; P0, F1, (F2)): NAE / NAE
- Testis HP (Wistar rats [1]; P0, F1, (F2)): NAE / NAE
- Testis weight (Wistar rats [1]; P0, F1, (F2)): NAE / NAE
- Thyroid HP (Wistar rats [1]; P0, F1, (F2)): NAE / NAE
- Thyroid stimulating hormone level (Wistar rats [1]; P0, F1, (F2)): NAE / NAE
- Thyroid weight (Wistar rats [1]; P0, F1, (F2)): NAE / NAE
- Time to mating (Wistar rats [1]; P0, F1, (F2)): NAE / NAE
- Triiodothyronine / thyroxine level (Wistar rats [1]; P0, F1, (F2)): NAE / NAE
- Uterus HP (with cervix) (Wistar rats [1]; P0, F1, (F2)): NAE / NAE
- Uterus weight (with cervix) (Wistar rats [1]; P0, F1, (F2)): NAE / NAE
- Vagina HP (Wistar rats [1]; P0, F1, (F2)): NAE / NAE
- Vaginal smears (Wistar rats [1]; P0, F1, (F2)): NAE / NAE
- Anogenital distance, female pups PND 0 (Wistar rats [1]; all dose groups, within historical control, assessed as not toxicologically relevant): minimal lower absolute and relative anogenital distance
- Clinical biochemistry parameters (Wistar rats [1]; parental animals, assessed as not toxicologically relevant): few marginal but statistically significant differences
- Thyroid stimulating hormone (Wistar rats [1]; parental females (and F1 males) of high dose group, assessed as not toxicologically relevant): slight but statistically significantly higher group mean thyroid stimulating hormone values
- Alterations of the parameters addressed in OECD TG 443 (Wistar rats [1]; up to 1000 mg/kg bw/day): no toxicologically relevant alterations
- Local reactions after gavage (Wistar rats [1]; without toxicological relevance): Transient increased salivation
- Skin irritation/skin corrosion classification (rats [2]): Not irritating (read-across)
- LD50 (rats [3]): > 5000 (OECD 401; 1982) mg/kg bw
- NOAEL (Wistar rats [4]; historical OECD TG 422 feeding study, 15,000 ppm, first-generation offspring): 1125 mg/kg bw/day
- NOAEL (Wistar rats [4]; historical OECD TG 422 feeding study, 15,000 ppm, parental females before pairing): 1076 mg/kg bw/day
- NOAEL (Wistar rats [4]; historical OECD TG 422 feeding study, 15,000 ppm, parental males before pairing): 981 mg/kg bw/day
- NOAEL (Wistar rats [4]; historical OECD TG 422 feeding study, highest concentration tested): 15,000 ppm
- NOAEL, reproductive toxicity (Wistar rats [5]): NOAEL: 1000 (OECD 421; v 2016 & OECD 422 [b]) mg/kg body weight/day
- NOAEL, reproductive toxicity (Wistar rats [5]; listed as propyl paraben): 1000 mg/kg body weight/day
- Treatment-related effects in parental animals or pups (Wistar rats [5]; OECD TG 421): no treatment-related effects
- Accessory sex organs HP (Wistar rats [5]; P0, F1): n. a. / NAE
- Anogenital distance (Wistar rats [5]; P0, F1): n. a. / NAE
- Coagulating gland weight (Wistar rats [5]; P0, F1): n. a. / NAE
- Dystocia (Wistar rats [5]; P0, F1): n. a. / NAE
- Epididymis HP (Wistar rats [5]; P0, F1): n. a. / NAE
- Epididymis weight (Wistar rats [5]; P0, F1): n. a. / NAE
- Fertility (Wistar rats [5]; P0, F1): n. a. / NAE
- Foetal development (Wistar rats [5]; P0, F1): n. a. / NAE
- Gestation length (Wistar rats [5]; P0, F1): n. a. / NAE
- Litter size (Wistar rats [5]; P0, F1): n. a. / NAE
- Litter viability (Wistar rats [5]; P0, F1): n. a. / NAE
- Nipple development (Wistar rats [5]; P0, F1): n. a. / NAE
- No. of implantations, corpora lutea (Wistar rats [5]; P0, F1): n. a. / NAE
- No. of live births (Wistar rats [5]; P0, F1): n. a. / NAE
- Oestrus cyclicity (Wistar rats [5]; P0, F1): n. a. / NAE
- Ovary HP (Wistar rats [5]; P0, F1): n. a. / NAE
- Postimplantation loss (Wistar rats [5]; P0, F1): n. a. / NAE
- Pre-implantation loss (Wistar rats [5]; P0, F1): n. a. / NAE
- Presence of anomalies (external, visceral, skeletal) (Wistar rats [5]; P0, F1): n. a. / NAE
- Prostate HP (Wistar rats [5]; P0, F1): n. a. / NAE
- Prostate weight (Wistar rats [5]; P0, F1): n. a. / NAE
- Reproduction (Wistar rats [5]; P0, F1): n. a. / NAE
- Seminal vesicles weight (Wistar rats [5]; P0, F1): n. a. / NAE
- Testis HP (Wistar rats [5]; P0, F1): n. a. / NAE
- Testis weight (Wistar rats [5]; P0, F1): n. a. / NAE
- Thyroid stimulating hormone level (Wistar rats [5]; P0, F1): n. a. / NAE
- Time to mating (Wistar rats [5]; P0, F1): n. a. / NAE
- Triiodothyronine / thyroxine level (Wistar rats [5]; P0, F1): n. a. / NAE
- Vaginal smears (Wistar rats [5]; P0, F1): n. a. / NAE
